Results taken from patent publication US20020111274A1, “1-alkyl-3-[1-(substituted phenyl) benzotriazol-6-yl] uracils” (BASF Aktiengesellschaft, priority 2000, published 2002).

Assays:
Design in all cases: scale not given here
ABUTH Velvetleaf [1] = test: Postemergence herbicidal evaluation, ABUTH; format: in vivo, Abutilon theophrasti, Medic.; conditions: postemergence spray, rated about two-three weeks after treatment
Procedure, shortened: (§1)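 Two-week-old seedlings sprayed postemergence with compound in 80/20 acetone/water plus 1.0% methylated seed oil, at about 0.006–0.400 kg/ha, through a nozzle at 40 psi. Plants kept under greenhouse conditions and visually rated about two–three weeks after treatment; ratings from repeat tests averaged.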

AMBEL Ragweed, Common [2] = test: Postemergence herbicidal evaluation, AMBEL; format: in vivo, Ambrosia artemisifolia, L.; conditions: postemergence spray, rated about two-three weeks after treatment
Procedure, shortened: as §1

CASOB Sicklepod [3] = test: Postemergence herbicidal evaluation, CASOB; format: in vivo, Cassia obtusifolia, L.; conditions: postemergence spray, rated about two-three weeks after treatment
Procedure, shortened: as §1

[4] = system: CHEAL Lambsquarters, Common; test: Postemergence herbicidal evaluation, CHEAL; format: in vivo, Chenopodium album, L.; conditions: postemergence spray, rated about two-three weeks after treatment
Procedure, shortened: as §1

ECHOG Barnyardgrass [5] = test: Postemergence herbicidal evaluation, ECHOG; format: in vivo, Echinochloa crus-galli, (L.) Beau; conditions: postemergence spray, rated about two-three weeks after treatment
Procedure, shortened: as §1

GALAP Galium [6] = test: Postemergence herbicidal evaluation, GALAP; format: in vivo, Galium aparine; conditions: postemergence spray, rated about two-three weeks after treatment
Procedure, shortened: as §1

[7] = system: IPOHE Morningglory, Ivyleaf; test: Postemergence herbicidal evaluation, IPOHE; format: in vivo, Ipomoea hederacea, (L.) Jacq.; conditions: postemergence spray, rated about two-three weeks after treatment
Procedure, shortened: as §1

SETVI Foxtail, Green [8] = test: Postemergence herbicidal evaluation, SETVI; format: in vivo, Setaria viridis, (L.) Beau; conditions: postemergence spray, rated about two-three weeks after treatment
Procedure, shortened: as §1

GLXMAW Soybean, Williams [9] = test: Postemergence herbicidal evaluation, GLXMAW; format: in vivo, Glycine max, (L.) Merr. cv Williams; conditions: postemergence spray, rated about two-three weeks after treatment
Procedure, shortened: as §1

[10] = system: TRZAWR Wheat, Winter, cv Riband; test: Postemergence herbicidal evaluation, TRZAWR; format: in vivo, Triticum aestivum; conditions: postemergence spray, rated about two-three weeks after treatment
Procedure, shortened: as §1

ORYSAT Rice, Tebonnet [11] = test: Postemergence herbicidal evaluation, ORYSAT; format: in vivo, Oryza sativa, (L.); conditions: postemergence spray, rated about two-three weeks after treatment
Procedure, shortened: as §1

ZEAMX Corn, Field [12] = test: Postemergence herbicidal evaluation, ZEAMX; format: in vivo, Zea mays, L. (Sammel-Bezeichnung); conditions: postemergence spray, rated about two-three weeks after treatment
Procedure, shortened: as §1

ABUTH Velvetleaf [13] = test: Preemergence herbicidal evaluation, ABUTH; format: in vivo, Abutilon theophrasti, Medic.; conditions: preemergence
Procedure, shortened: (§2)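 Seeds mixed with potting soil were planted on about one inch of soil in cups, then sprayed with the test compound in aqueous acetone at roughly 0.013 to 0.800 kg per hectare. Plants were kept under standard greenhouse care and injury was rated four to five weeks after treatment.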

AMBEL Ragweed, Common [14] = test: Preemergence herbicidal evaluation, AMBEL; format: in vivo, Ambrosia artemisifolia, L.; conditions: preemergence
Procedure, shortened: as §2

CASOB Sicklepod [15] = test: Preemergence herbicidal evaluation, CASOB; format: in vivo, Cassia obtusifolia, L.; conditions: preemergence
Procedure, shortened: as §2

[16] = system: CHEAL Lambsquarters, Common; test: Preemergence herbicidal evaluation, CHEAL; format: in vivo, Chenopodium album, L.; conditions: preemergence
Procedure, shortened: as §2

ECHOG Barnyardgrass [17] = test: Preemergence herbicidal evaluation, ECHOG; format: in vivo, Echinochloa crus-galli, (L.) Beau; conditions: preemergence
Procedure, shortened: as §2

GALAP Galium [18] = test: Preemergence herbicidal evaluation, GALAP; format: in vivo, Galium aparine; conditions: preemergence
Procedure, shortened: as §2

[19] = system: IPOHE Morningglory, Ivyleaf; test: Preemergence herbicidal evaluation, IPOHE; format: in vivo, Ipomoea hederacea, (L.) Jacq.; conditions: preemergence
Procedure, shortened: as §2

SETVI Foxtail, Green [20] = test: Preemergence herbicidal evaluation, SETVI; format: in vivo, Setaria viridis, (L.) Beau; conditions: preemergence
Procedure, shortened: as §2

GLXMAW Soybean, Williams [21] = test: Preemergence herbicidal evaluation, GLXMAW; format: in vivo, Glycine max, (L.) Merr. cv Williams; conditions: preemergence
Procedure, shortened: as §2

[22] = system: TRZAWR Wheat, Winter, cv Riband; test: Preemergence herbicidal evaluation, TRZAWR; format: in vivo, Triticum aestivum; conditions: preemergence
Procedure, shortened: as §2

ORYSAT Rice, Tebonnet [23] = test: Preemergence herbicidal evaluation, ORYSAT; format: in vivo, Oryza sativa, (L.); conditions: preemergence
Procedure, shortened: as §2

ZEAMX Corn, Field [24] = test: Preemergence herbicidal evaluation, ZEAMX; format: in vivo, Zea mays, L. (Sammel-Bezeichnung); conditions: preemergence
Procedure, shortened: as §2

C#CCOC(=O)COc1ccc(C)c(-n2nnc3cc(F)c(-n4c(=O)cc(C(F)(F)F)n(C)c4=O)cc32)c1 [Example 36]
Postemergence herbicidal rating ABUTH (ABUTH Velvetleaf [1]; 0.008 kg/ha): 2.0
Postemergence herbicidal rating ABUTH (ABUTH Velvetleaf [1]; 0.016 kg/ha): 7.0
Postemergence herbicidal rating ABUTH (ABUTH Velvetleaf [1]; 0.032 kg/ha): 9.0
Postemergence herbicidal rating ABUTH (ABUTH Velvetleaf [1]; 0.062 kg/ha): 9.0
Postemergence herbicidal rating AMBEL (AMBEL Ragweed, Common [2]; 0.008 kg/ha): 2.0
Postemergence herbicidal rating AMBEL (AMBEL Ragweed, Common [2]; 0.016 kg/ha): 4.0
Postemergence herbicidal rating AMBEL (AMBEL Ragweed, Common [2]; 0.032 kg/ha): 5.0
Postemergence herbicidal rating AMBEL (AMBEL Ragweed, Common [2]; 0.062 kg/ha): 5.0
Postemergence herbicidal rating CASOB (CASOB Sicklepod [3]; 0.008 kg/ha): 0.0
Postemergence herbicidal rating CASOB (CASOB Sicklepod [3]; 0.016 kg/ha): 0.0
Postemergence herbicidal rating CASOB (CASOB Sicklepod [3]; 0.032 kg/ha): 0.0
Postemergence herbicidal rating CASOB (CASOB Sicklepod [3]; 0.062 kg/ha): 0.0
Postemergence herbicidal rating CHEAL ([4]; 0.008 kg/ha): 0.0
Postemergence herbicidal rating CHEAL ([4]; 0.016 kg/ha): 0.0
Postemergence herbicidal rating CHEAL ([4]; 0.032 kg/ha): 2.0
Postemergence herbicidal rating CHEAL ([4]; 0.062 kg/ha): 4.0
Postemergence herbicidal rating ECHCG (ECHOG Barnyardgrass [5]; 0.008 kg/ha): 0.0
Postemergence herbicidal rating ECHCG (ECHOG Barnyardgrass [5]; 0.016 kg/ha): 0.0
Postemergence herbicidal rating ECHCG (ECHOG Barnyardgrass [5]; 0.032 kg/ha): 0.0
Postemergence herbicidal rating ECHCG (ECHOG Barnyardgrass [5]; 0.062 kg/ha): 3.0
Postemergence herbicidal rating GALAP (GALAP Galium [6]; 0.008 kg/ha): 0.0
Postemergence herbicidal rating GALAP (GALAP Galium [6]; 0.016 kg/ha): 0.0
Postemergence herbicidal rating GALAP (GALAP Galium [6]; 0.032 kg/ha): 2.0
Postemergence herbicidal rating GALAP (GALAP Galium [6]; 0.062 kg/ha): 3.0
Postemergence herbicidal rating IPOHE ([7]; 0.008 kg/ha): 5.0
Postemergence herbicidal rating IPOHE ([7]; 0.016 kg/ha): 8.0
Postemergence herbicidal rating IPOHE ([7]; 0.032 kg/ha): 9.0
Postemergence herbicidal rating IPOHE ([7]; 0.062 kg/ha): 9.0
Postemergence herbicidal rating SETVI (SETVI Foxtail, Green [8]; 0.008 kg/ha): 4.0
Postemergence herbicidal rating SETVI (SETVI Foxtail, Green [8]; 0.016 kg/ha): 4.0
Postemergence herbicidal rating SETVI (SETVI Foxtail, Green [8]; 0.032 kg/ha): 7.0
Postemergence herbicidal rating SETVI (SETVI Foxtail, Green [8]; 0.062 kg/ha): 9.0
Postemergence herbicidal rating GLXMAW (GLXMAW Soybean, Williams [9]; 0.008 kg/ha): 3.5
Postemergence herbicidal rating GLXMAW (GLXMAW Soybean, Williams [9]; 0.016 kg/ha): 4.0
Postemergence herbicidal rating GLXMAW (GLXMAW Soybean, Williams [9]; 0.032 kg/ha): 4.0
Postemergence herbicidal rating GLXMAW (GLXMAW Soybean, Williams [9]; 0.062 kg/ha): 4.5
Postemergence herbicidal rating TRZAWR ([10]; 0.008 kg/ha): 4.5
Postemergence herbicidal rating TRZAWR ([10]; 0.016 kg/ha): 5.0
Postemergence herbicidal rating TRZAWR ([10]; 0.032 kg/ha): 6.0
Postemergence herbicidal rating TRZAWR ([10]; 0.062 kg/ha): 7.0
Postemergence herbicidal rating ORYSAT (ORYSAT Rice, Tebonnet [11]; 0.008 kg/ha): 1.5
Postemergence herbicidal rating ORYSAT (ORYSAT Rice, Tebonnet [11]; 0.016 kg/ha): 1.0
Postemergence herbicidal rating ORYSAT (ORYSAT Rice, Tebonnet [11]; 0.032 kg/ha): 2.5
Postemergence herbicidal rating ORYSAT (ORYSAT Rice, Tebonnet [11]; 0.062 kg/ha): 4.0
Postemergence herbicidal rating ZEAMX (ZEAMX Corn, Field [12]; 0.008 kg/ha): 7.5
Postemergence herbicidal rating ZEAMX (ZEAMX Corn, Field [12]; 0.016 kg/ha): 7.5
Postemergence herbicidal rating ZEAMX (ZEAMX Corn, Field [12]; 0.032 kg/ha): 8.0
Postemergence herbicidal rating ZEAMX (ZEAMX Corn, Field [12]; 0.062 kg/ha): 8.5
ABUTH herbicidal rating (ABUTH Velvetleaf [13]; rate 0.016 kg/ha): 0.0
ABUTH herbicidal rating (ABUTH Velvetleaf [13]; rate 0.032 kg/ha): 1.5
ABUTH herbicidal rating (ABUTH Velvetleaf [13]; rate 0.062 kg/ha): 3.0
ABUTH herbicidal rating (ABUTH Velvetleaf [13]; rate 0.125 kg/ha): 8.0
AMBEL herbicidal rating (AMBEL Ragweed, Common [14]; rate 0.016 kg/ha): 0.0
AMBEL herbicidal rating (AMBEL Ragweed, Common [14]; rate 0.032 kg/ha): 2.0
AMBEL herbicidal rating (AMBEL Ragweed, Common [14]; rate 0.062 kg/ha): 2.0
AMBEL herbicidal rating (AMBEL Ragweed, Common [14]; rate 0.125 kg/ha): 5.0
CASOB herbicidal rating (CASOB Sicklepod [15]; rate 0.016 kg/ha): 0.0
CASOB herbicidal rating (CASOB Sicklepod [15]; rate 0.032 kg/ha): 0.0
CASOB herbicidal rating (CASOB Sicklepod [15]; rate 0.062 kg/ha): 0.0
CASOB herbicidal rating (CASOB Sicklepod [15]; rate 0.125 kg/ha): 0.0
CHEAL herbicidal rating ([16]; rate 0.016 kg/ha): 0.0
CHEAL herbicidal rating ([16]; rate 0.032 kg/ha): 6.5
CHEAL herbicidal rating ([16]; rate 0.062 kg/ha): 9.0
CHEAL herbicidal rating ([16]; rate 0.125 kg/ha): 9.0
ECHCG herbicidal rating (ECHOG Barnyardgrass [17]; rate 0.016 kg/ha): 0.0
ECHCG herbicidal rating (ECHOG Barnyardgrass [17]; rate 0.032 kg/ha): 0.0
ECHCG herbicidal rating (ECHOG Barnyardgrass [17]; rate 0.062 kg/ha): 0.0
ECHCG herbicidal rating (ECHOG Barnyardgrass [17]; rate 0.125 kg/ha): 0.0
GALAP herbicidal rating (GALAP Galium [18]; rate 0.016 kg/ha): 0.0
GALAP herbicidal rating (GALAP Galium [18]; rate 0.032 kg/ha): 0.0
GALAP herbicidal rating (GALAP Galium [18]; rate 0.062 kg/ha): 0.0
GALAP herbicidal rating (GALAP Galium [18]; rate 0.125 kg/ha): 0.0
IPOHE herbicidal rating ([19]; rate 0.016 kg/ha): 0.0
IPOHE herbicidal rating ([19]; rate 0.032 kg/ha): 0.0
IPOHE herbicidal rating ([19]; rate 0.062 kg/ha): 0.0
IPOHE herbicidal rating ([19]; rate 0.125 kg/ha): 4.0
SETVI herbicidal rating (SETVI Foxtail, Green [20]; rate 0.016 kg/ha): 0.0
SETVI herbicidal rating (SETVI Foxtail, Green [20]; rate 0.032 kg/ha): 0.0
SETVI herbicidal rating (SETVI Foxtail, Green [20]; rate 0.062 kg/ha): 0.0
SETVI herbicidal rating (SETVI Foxtail, Green [20]; rate 0.125 kg/ha): 3.0
GLXMAW herbicidal rating (GLXMAW Soybean, Williams [21]; rate 0.016 kg/ha): 0.0
GLXMAW herbicidal rating (GLXMAW Soybean, Williams [21]; rate 0.032 kg/ha): 0.0
GLXMAW herbicidal rating (GLXMAW Soybean, Williams [21]; rate 0.062 kg/ha): 0.0
GLXMAW herbicidal rating (GLXMAW Soybean, Williams [21]; rate 0.125 kg/ha): 0.0
TRZAWR herbicidal rating ([22]; rate 0.016 kg/ha): 0.0
TRZAWR herbicidal rating ([22]; rate 0.032 kg/ha): 0.0
TRZAWR herbicidal rating ([22]; rate 0.062 kg/ha): 0.0
TRZAWR herbicidal rating ([22]; rate 0.125 kg/ha): 0.0
ORYSAT herbicidal rating (ORYSAT Rice, Tebonnet [23]; rate 0.016 kg/ha): 0.0
ORYSAT herbicidal rating (ORYSAT Rice, Tebonnet [23]; rate 0.032 kg/ha): 0.0
ORYSAT herbicidal rating (ORYSAT Rice, Tebonnet [23]; rate 0.062 kg/ha): 1.0
ORYSAT herbicidal rating (ORYSAT Rice, Tebonnet [23]; rate 0.125 kg/ha): 1.5
ZEAMX herbicidal rating (ZEAMX Corn, Field [24]; rate 0.016 kg/ha): 0.0
ZEAMX herbicidal rating (ZEAMX Corn, Field [24]; rate 0.032 kg/ha): 0.0
ZEAMX herbicidal rating (ZEAMX Corn, Field [24]; rate 0.062 kg/ha): 0.0
ZEAMX herbicidal rating (ZEAMX Corn, Field [24]; rate 0.125 kg/ha): 0.0
